The text below walks through data of ChEMBL document CHEMBL1944637, “Asymmetric synthesis and cytotoxicity of (-)-saframycin A analogues” (Eur J Med Chem, 2012).

Format in all cases: functional, cell-based
The subject of experiment [1] is HCT-8. The experiment can be described thus: Cytotoxicity against human HCT8 cells assessed as cell viability after 72 hrs by MTT assay. The conditions noted are these: HCT-8, 72 h. (In general: Tetrazolium assays rely on reduction of a dye to a coloured formazan, in cell work by metabolically active cells.)
Experiment [2] deals with HeLa. The experiment can be described thus: Cytotoxicity against human HeLa cells assessed as cell viability after 72 hrs by MTT assay.
Experiment [3] deals with A549. The experiment can be described thus: Cytotoxicity against human A549 cells assessed as cell viability after 72 hrs by MTT assay. The conditions noted are these: A549, 72 h.
The nature of experiment [4]: Cytotoxicity against human BGC803 cells assessed as cell viability after 72 hrs by MTT assay. The conditions noted are these: BGC803, 72 h.
The test system of experiment [5] is Bel-7402. The experiment can be described thus: Cytotoxicity against human Bel7402 cells assessed as cell viability after 72 hrs by MTT assay. The conditions noted are these: Bel-7402, 72 h.
In experiment [6] the test system is KB. The experiment can be described thus: Cytotoxicity against human KB cells assessed as cell viability after 72 hrs by MTT assay.
Experiment [7] is described as follows: Cytotoxicity against human HELF cells assessed as cell viability after 72 hrs by MTT assay.
The subject of experiment [8] is KETR3. The experiment can be described thus: Cytotoxicity against human Ketr3 cells assessed as cell viability after 72 hrs by MTT assay. The conditions noted are these: KETR3, 72 h.
The subject of experiment [9] is MCF7. The experiment can be described thus: Cytotoxicity against human MCF7 cells assessed as cell viability after 72 hrs by MTT assay. The note with it: MCF7, 72 h.
Experiment [10] concerns A2780. The experiment can be described thus: Cytotoxicity against human A2780 cells assessed as cell viability after 72 hrs by MTT assay. The note with it: A2780, 72 h.

One may read the IC50 as the concentration needed to halve the response being measured. On to `COC1=C(C)C(=O)C2=C(C1=O)[C@@H]1[C@@H]3CC4=C(C(=O)C(OC)=C(C)C4=O)[C@H](CNC(=O)c4cc5ccccc5[nH]4)N3[C@@H](C#N)[C@H](C2)N1C`, for which the IC50 was determined as 90.5 nM in [1]; 5.29 nM in experiment [2]; 35 nM in experiment [3]; 26.3 nM in experiment [4]; 11.5 nM in experiment [5]; 14.9 nM in experiment [6]. For the same compound, the 50% inhibitory concentration (IC50) in experiment [7] was 17.5 nM; in [8], 19.7 nM; in experiment [9], 22.9 nM; in [10] it was 11.2 nM.
On to `COC1=C(C)C(=O)C2=C(C1=O)[C@@H]1[C@@H]3CC4=C(C(=O)C(OC)=C(C)C4=O)[C@H](CNC(=O)c4cccs4)N3[C@@H](C#N)[C@H](C2)N1C`, for which the concentration for half-maximal inhibition (IC50) in experiment [1] is more than 100 nM; in experiment [2], 17.4 nM; in experiment [3], more than 100 nM; in experiment [4], 4.19 nM; in [5], 16.4 nM; in [6] it was 17.5 nM. For the same compound, the IC50 stood at 27.2 nM in [7], 37.3 nM in experiment [8], 45.2 nM in experiment [9] and 27.4 nM in experiment [10].
Regarding `COC1=C(C)C(=O)C2=C(C1=O)[C@@H]1[C@@H]3CC4=C(C(=O)C(OC)=C(C)C4=O)[C@H](CNC(=O)OC(C)(C)C)N3[C@@H](C#N)[C@H](C2)N1C`, the concentration for half-maximal inhibition (IC50) in experiment [1] is more than 100 nM; in experiment [2], 7.41 nM; in [3] it was 34.3 nM; in [4] it was 66.2 nM; in [5], 5.38 nM; in [6] it was 29.4 nM. The half-inhibitory concentration (IC50) in experiment [7] worked out at 18.4 nM; in experiment [8], 12.9 nM; in [9], 8.89 nM; in [10], 22.7 nM.
As to `COC1=C(C)C(=O)C2=C(C1=O)[C@@H]1[C@@H]3CC4=C(C(=O)C(OC)=C(C)C4=O)[C@H](CNC(=O)/C=C/c4cccc(C(F)(F)F)c4)N3[C@@H](C#N)[C@H](C2)N1C`, the IC50 in [1] is 43.3 nM; in experiment [2] it was 7.9 nM; in experiment [3], 77.1 nM; in experiment [4], 22.3 nM; in experiment [5], 29.7 nM; in experiment [6] it was 11.7 nM. The half-inhibitory concentration (IC50) in experiment [7] is more than 100 nM; in [8], 28.9 nM; in [9], 4.2 nM; in [10], 39.8 nM.
As to `COC1=C(C)C(=O)C2=C(C1=O)[C@@H]1[C@@H]3CC4=C(C(=O)C(OC)=C(C)C4=O)[C@H](CNC(=O)c4cccc(C(F)(F)F)c4)N3[C@@H](C#N)[C@H](C2)N1C`, the IC50 in experiment [1] is more than 100 nM; in experiment [2] it was 43.2 nM; in experiment [3], more than 100 nM; in experiment [4], 58.5 nM; in [5] it was 21 nM; in experiment [6], 53.9 nM. For the same compound, the IC50 in experiment [7] is 25.7 nM; in [8], 30.6 nM; in experiment [9], 26.1 nM; in [10] it was 47.1 nM.
`COC1=C(C)C(=O)C2=C(C1=O)[C@@H]1[C@@H]3CC4=C(C(=O)C(OC)=C(C)C4=O)[C@H](CNC(=O)c4nccc5ccccc45)N3[C@@H](C#N)[C@H](C2)N1C`: the IC50 was more than 100 nM in experiment [1]; 26.6 nM in [2]; 88.6 nM in experiment [3]; 58.5 nM in experiment [4]; 84.7 nM in [5]; 75 nM in experiment [6]. Moreover, the concentration for half-maximal inhibition (IC50) in experiment [7] is 85.4 nM; in experiment [8], more than 100 nM; in [9], 24.2 nM; in [10], 98 nM.
With `COC1=C(C)C(=O)C2=C(C1=O)[C@@H]1[C@@H]3CC4=C(C(=O)C(OC)=C(C)C4=O)[C@H](CNC(=O)c4ccc5c(c4)OCO5)N3[C@@H](C#N)[C@H](C2)N1C`, the IC50 in experiment [1] was 21.1 nM; in [2] it was 3.34 nM; in [3], 69 nM; in experiment [4] it was 20 nM; in experiment [5] it was 2.02 nM; in [6] it was 3.94 nM. Moreover, the IC50 was determined as 2.18 nM in experiment [7], 6.88 nM in [8], 4.79 nM in experiment [9] and 5.11 nM in experiment [10].
For the compound `COC1=C(C)C(=O)C2=C(C1=O)[C@@H]1[C@@H]3CC4=C(C(=O)C(OC)=C(C)C4=O)[C@H](CNC(=O)CNC(=O)c4ccccc4)N3[C@@H](C#N)[C@H](C2)N1C`, the IC50 in experiment [1] stood at 58.5 nM; in experiment [2], 10.7 nM; in experiment [3], 10 nM; in experiment [4], 27.7 nM; in experiment [5], 22.4 nM; in experiment [6], 16.9 nM. Besides, the half-inhibitory concentration (IC50) in [7] was 16.7 nM; in [8], 23.6 nM; in [9], 39.5 nM; in [10] it was 43.9 nM.
In the case of `COC1=C(C)C(=O)C2=C(C1=O)[C@@H]1[C@@H]3CC4=C(C(=O)C(OC)=C(C)C4=O)[C@H](CNC(=O)/C=C/c4ccc(OC)c(OC)c4OC)N3[C@@H](C#N)[C@H](C2)N1C`, the half-inhibitory concentration (IC50) was 27.4 nM in experiment [1]; 3.85 nM in [2]; 81.8 nM in experiment [3]; 6.27 nM in experiment [4]; 11.4 nM in experiment [5]; 9.85 nM in experiment [6]. Moreover, the half-inhibitory concentration (IC50) was more than 100 nM in experiment [7], 15.5 nM in experiment [8], 5.44 nM in experiment [9] and 33.7 nM in experiment [10].
Take `COC1=C(C)C(=O)C2=C(C1=O)[C@@H]1[C@@H]3CC4=C(C(=O)C(OC)=C(C)C4=O)[C@H](CNC(=O)c4ccco4)N3[C@@H](C#N)[C@H](C2)N1C`: the IC50 in experiment [1] stood at 12.4 nM; in [2], 2.58 nM; in [3], 0.95 nM; in experiment [4], 16 nM; in experiment [5], 1.22 nM; in [6] it was 3.55 nM. For the same compound, the IC50 in experiment [7] was 1.68 nM; in experiment [8], 3.01 nM; in experiment [9] it was 15.3 nM; in [10], 3.87 nM.
Turning to `COC1=C(C)C(=O)C2=C(C1=O)[C@@H]1[C@@H]3CC4=C(C(=O)C(OC)=C(C)C4=O)[C@H](CNC(=O)c4cc(Br)ccc4Cl)N3[C@@H](C#N)[C@H](C2)N1C`, the IC50 is more than 100 nM in experiment [1], more than 100 nM in [2] and 66.2 nM in experiment [4].
With `COC1=C(C)C(=O)C2=C(C1=O)[C@@H]1[C@@H]3CC4=C(C(=O)C(OC)=C(C)C4=O)[C@H](CNC(=O)c4ccc5ccccc5n4)N3[C@@H](C#N)[C@H](C2)N1C`, the IC50 in [1] was 43.4 nM; in experiment [2], 9.51 nM; in experiment [3], 65.3 nM; in experiment [4], 21.5 nM; in experiment [5], 23.7 nM; in experiment [6] it was 16.6 nM. The concentration for half-maximal inhibition (IC50) in [7] was determined as 19.8 nM; in experiment [8] it was 69.9 nM; in experiment [9] it was 14.9 nM; in experiment [10], 29.6 nM.
`COc1c(C)cc2c(c1O)[C@@H]1[C@@H]3Cc4cc(C)c(OC)c(O)c4[C@H](CNC(=O)OC(C)(C)C)N3[C@@H](C#N)[C@H](C2)N1C`: the IC50 amounted to 63.8 nM in experiment [1]; 92.7 nM in experiment [2]; 26.8 nM in experiment [3]; 32.1 nM in [4]; 32.4 nM in experiment [5]; 31.4 nM in experiment [6]. Moreover, the IC50 came out at 19.5 nM in experiment [7], 23.7 nM in [8], 17.3 nM in experiment [9] and 45 nM in experiment [10].
As to `COC1=C(C)C(=O)C2=C(C1=O)[C@@H]1[C@@H]3CC4=C(C(=O)C(OC)=C(C)C4=O)[C@H](CNC(=O)/C=C/c4ccc(OC)cc4)N3[C@@H](C#N)[C@H](C2)N1C`, the IC50 in [1] was 46.7 nM; in experiment [2] it was 7.77 nM; in [3], 23.8 nM; in experiment [4] it was 6.91 nM; in experiment [5], 6.23 nM; in experiment [6], 9.04 nM. Further, the half-maximal inhibitory concentration (IC50) amounted to 4.88 nM in experiment [7], 11 nM in experiment [8], 5.35 nM in experiment [9] and 14.4 nM in experiment [10].
`COC1=C(C)C(=O)C2=C(C1=O)[C@@H]1[C@@H]3CC4=C(C(=O)C(OC)=C(C)C4=O)[C@H](CNC(=O)/C=C/c4ccnc5ccccc45)N3[C@@H](C#N)[C@H](C2)N1C`: the concentration for half-maximal inhibition (IC50) came to 18.2 nM in experiment [1]; 8.33 nM in experiment [2]; 35.7 nM in experiment [3]; 17.1 nM in experiment [4]; 18.2 nM in experiment [5]; 5.7 nM in [6]. The IC50 in [7] was determined as 23.4 nM; in experiment [8], 11.5 nM; in [9], 2.23 nM; in [10], 17.5 nM.
Regarding `CCc1ccc(/C=C/C(=O)NC[C@H]2C3=C(C[C@H]4[C@H]5C6=C(C[C@@H]([C@H](C#N)N24)N5C)C(=O)C(C)=C(OC)C6=O)C(=O)C(C)=C(OC)C3=O)cc1`, the 50% inhibitory concentration (IC50) is more than 100 nM in experiment [1]; 8.68 nM in experiment [2]; 96.7 nM in [3]; 21.2 nM in experiment [4]; 24.3 nM in [5]; 28.4 nM in [6]. In addition, the IC50 was more than 100 nM in experiment [7], 52.1 nM in [8], 18.5 nM in [9] and 25.5 nM in experiment [10].
On to `COC1=C(C)C(=O)C2=C(C1=O)[C@@H]1[C@@H]3CC4=C(C(=O)C(OC)=C(C)C4=O)[C@H](CNC(=O)/C=C/c4ccc(C(C)(C)C)cc4)N3[C@@H](C#N)[C@H](C2)N1C`, for which the IC50 in experiment [1] was more than 100 nM; in experiment [2], 31.2 nM; in experiment [3] it was more than 100 nM; in experiment [4], 31 nM; in experiment [5] it was more than 100 nM; in experiment [6] it was 26.3 nM. Also, the IC50 in [7] is more than 100 nM; in [8], more than 100 nM; in experiment [9] it was 25.6 nM.
